Measured values taken from publication PMC8371461 (Frontiers in Pharmacology, 2021).

What was measured:
ACVR2A = biological target: T1, ACVR2A (Homo sapiens, UniProt P27037); test: kinome scan; assay type: binding; details: 10 µM
T1 construct: purchased DiscoverX (KINOMEscan)

CAMK1 = biological target: T2, CAMK1 (Homo sapiens, UniProt Q14012); test: kinome scan; assay type: binding; details: 10 µM
T2 construct: purchased DiscoverX (KINOMEscan)

CDK11 = biological target: T3, CDK11 (Homo sapiens, UniProt Q9BWU1); test: kinome scan; assay type: binding; details: 10 µM
T3 construct: purchased DiscoverX (KINOMEscan)

CDK9 = biological target: T4, CDK9 (Homo sapiens, UniProt P50750); test: kinome scan; assay type: binding; details: 10 µM
T4 construct: purchased DiscoverX (KINOMEscan)

CSNK1G1 = biological target: T5, CSNK1G1 (Homo sapiens, UniProt Q9HCP0); test: kinome scan; assay type: binding; details: 10 µM
T5 construct: purchased DiscoverX (KINOMEscan)

DCAMKL3 = biological target: T6, DCAMKL3 (Homo sapiens, UniProt Q9C098); test: kinome scan; assay type: binding; details: 10 µM
T6 construct: purchased DiscoverX (KINOMEscan)

EPHA7 = biological target: T7, EPHA7 (Homo sapiens, UniProt Q15375); test: kinome scan; assay type: binding; details: 10 µM
T7 construct: purchased DiscoverX (KINOMEscan)

FAK = biological target: T8, FAK (Homo sapiens, UniProt Q05397); test: kinome scan; assay type: binding; details: 10 µM
T8 construct: purchased DiscoverX (KINOMEscan)

FGFR1 = biological target: T9, FGFR1 (Homo sapiens, UniProt P11362); test: kinome scan; assay type: binding; details: 10 µM
T9 construct: purchased DiscoverX (KINOMEscan)

FGFR4 = biological target: T10, FGFR4 (Homo sapiens, UniProt P22455); test: kinome scan; assay type: binding; details: 10 µM
T10 construct: purchased DiscoverX (KINOMEscan)

GRK4 = biological target: T11, GRK4 (Homo sapiens, UniProt P32298); test: kinome scan; assay type: binding; details: 10 µM
T11 construct: purchased DiscoverX (KINOMEscan)

NEK1 = biological target: T12, NEK1 (Homo sapiens, UniProt Q96PY6); test: kinome scan; assay type: binding; details: 10 µM
T12 construct: purchased DiscoverX (KINOMEscan)

NEK2 = biological target: T13, NEK2 (Homo sapiens, UniProt P51955); test: kinome scan; assay type: binding; details: 10 µM
T13 construct: purchased DiscoverX (KINOMEscan)

NEK4 = biological target: T14, NEK4 (Homo sapiens, UniProt P51957); test: kinome scan; assay type: binding; details: 10 µM
T14 construct: purchased DiscoverX (KINOMEscan)

PIK3C2G = biological target: T15, PIK3C2G (Homo sapiens, UniProt O75747); test: kinome scan; assay type: binding
T15 construct: purchased DiscoverX (KINOMEscan)

TLK1 = biological target: T16, TLK1 (Homo sapiens, UniProt Q9UKI8); test: kinome scan; assay type: binding; details: 10 µM
T16 construct: purchased DiscoverX (KINOMEscan)

TNNI3K = biological target: T17, TNNI3K (Homo sapiens, UniProt Q59H18); test: kinome scan; assay type: binding; details: 10 µM
T17 construct: purchased DiscoverX (KINOMEscan)

ZAK = biological target: T18, ZAK (Homo sapiens, UniProt Q9NYL2); test: kinome scan; assay type: binding; details: 10 µM
T18 construct: purchased DiscoverX (KINOMEscan)

PSC = test: LC3B positive autophagosomes, immunofluorescent staining; assay type: cell-based, mouse; details: 10 µM, three days
Protocol: Cells were fixed with PBS containing 0.5% of para-formaldehyde for 15 min at room temperature. After three washing steps in PBS, cells were permeabilized with PBS containing 0.3% of Triton X-100 (Sigma) for 1 h at room temperature. After washing with PBS three times, cells were incubated overnight with the anti-LC3B antibody in PBS with 1% bovine serum albumin (Sigma) at 4°C. After three washing steps in PBS, cells were incubated with the fluorescent secondary antibody for 90 min at 4°C in PBS with 1% bovine serum albumin. They were then incubated with […] DAPI (Thermofisher) in PBS for 15 min. After washing with PBS, cells were rinsed once in water prior to mounting in the FluorSave reagent (Millipore).
Depending of these transitory environmental conditions, autophagy can either promote survival or apoptosis ([Degtyarev et al., 2008]). PIK/AKT pathway inhibition has been reported to increase cell autophagy ([Palmieri et al., 2017]). More specifically, PIP4K2C has been described as a down-regulator of autophagy ([Sharma et al., 2019]).

T15 sequence (O75747 whole entry): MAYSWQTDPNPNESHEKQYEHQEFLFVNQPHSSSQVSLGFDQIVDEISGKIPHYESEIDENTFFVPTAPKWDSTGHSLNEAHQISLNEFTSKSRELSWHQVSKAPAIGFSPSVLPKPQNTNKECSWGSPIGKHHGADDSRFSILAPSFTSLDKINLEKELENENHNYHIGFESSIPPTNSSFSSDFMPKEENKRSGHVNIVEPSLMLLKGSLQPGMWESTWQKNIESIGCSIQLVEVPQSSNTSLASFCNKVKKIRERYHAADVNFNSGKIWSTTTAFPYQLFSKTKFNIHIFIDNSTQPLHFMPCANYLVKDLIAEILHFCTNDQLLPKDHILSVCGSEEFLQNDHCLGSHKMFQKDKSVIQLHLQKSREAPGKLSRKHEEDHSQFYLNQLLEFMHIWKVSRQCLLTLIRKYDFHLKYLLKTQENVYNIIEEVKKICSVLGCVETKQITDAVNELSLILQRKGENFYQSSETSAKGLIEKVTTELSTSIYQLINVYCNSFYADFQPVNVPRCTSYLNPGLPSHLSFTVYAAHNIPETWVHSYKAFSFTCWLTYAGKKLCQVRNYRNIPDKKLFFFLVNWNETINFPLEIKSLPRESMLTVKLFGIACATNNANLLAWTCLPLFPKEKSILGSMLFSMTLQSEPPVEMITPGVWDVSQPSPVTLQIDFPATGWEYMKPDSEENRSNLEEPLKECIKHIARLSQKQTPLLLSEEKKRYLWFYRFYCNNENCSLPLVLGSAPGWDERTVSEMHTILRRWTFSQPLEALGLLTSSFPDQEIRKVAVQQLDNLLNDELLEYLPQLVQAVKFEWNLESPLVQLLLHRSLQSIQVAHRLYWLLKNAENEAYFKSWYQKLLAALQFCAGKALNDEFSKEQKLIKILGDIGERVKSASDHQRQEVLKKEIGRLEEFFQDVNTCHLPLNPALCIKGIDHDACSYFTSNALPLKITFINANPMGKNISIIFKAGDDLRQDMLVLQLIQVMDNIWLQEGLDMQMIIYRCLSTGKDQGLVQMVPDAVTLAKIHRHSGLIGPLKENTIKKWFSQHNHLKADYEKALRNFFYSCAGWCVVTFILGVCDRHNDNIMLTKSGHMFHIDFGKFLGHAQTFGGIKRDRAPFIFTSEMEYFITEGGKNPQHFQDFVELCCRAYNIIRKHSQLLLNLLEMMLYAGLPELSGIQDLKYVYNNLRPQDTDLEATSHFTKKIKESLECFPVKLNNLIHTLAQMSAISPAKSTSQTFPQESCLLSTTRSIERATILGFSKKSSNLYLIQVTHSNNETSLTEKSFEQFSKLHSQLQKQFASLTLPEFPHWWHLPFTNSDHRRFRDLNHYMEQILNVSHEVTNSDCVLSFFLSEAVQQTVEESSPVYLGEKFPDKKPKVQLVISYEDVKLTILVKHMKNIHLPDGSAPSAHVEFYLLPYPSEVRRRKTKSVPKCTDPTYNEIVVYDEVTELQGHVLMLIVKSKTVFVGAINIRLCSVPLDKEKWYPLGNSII
T3 sequence (Q9BWU1 whole entry): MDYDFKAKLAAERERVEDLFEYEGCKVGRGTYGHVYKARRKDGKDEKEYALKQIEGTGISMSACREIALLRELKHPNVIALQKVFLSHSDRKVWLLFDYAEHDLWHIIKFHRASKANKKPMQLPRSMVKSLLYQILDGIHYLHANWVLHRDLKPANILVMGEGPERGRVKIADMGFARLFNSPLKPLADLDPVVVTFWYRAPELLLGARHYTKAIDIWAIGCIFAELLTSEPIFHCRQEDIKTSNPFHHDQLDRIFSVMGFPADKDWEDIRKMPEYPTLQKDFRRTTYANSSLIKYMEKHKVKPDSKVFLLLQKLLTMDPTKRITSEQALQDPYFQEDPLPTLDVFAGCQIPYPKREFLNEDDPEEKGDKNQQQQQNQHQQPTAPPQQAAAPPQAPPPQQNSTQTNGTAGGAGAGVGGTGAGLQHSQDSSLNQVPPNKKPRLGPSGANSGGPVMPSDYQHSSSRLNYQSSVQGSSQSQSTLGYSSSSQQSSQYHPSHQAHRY
T14 sequence (P51957 whole entry): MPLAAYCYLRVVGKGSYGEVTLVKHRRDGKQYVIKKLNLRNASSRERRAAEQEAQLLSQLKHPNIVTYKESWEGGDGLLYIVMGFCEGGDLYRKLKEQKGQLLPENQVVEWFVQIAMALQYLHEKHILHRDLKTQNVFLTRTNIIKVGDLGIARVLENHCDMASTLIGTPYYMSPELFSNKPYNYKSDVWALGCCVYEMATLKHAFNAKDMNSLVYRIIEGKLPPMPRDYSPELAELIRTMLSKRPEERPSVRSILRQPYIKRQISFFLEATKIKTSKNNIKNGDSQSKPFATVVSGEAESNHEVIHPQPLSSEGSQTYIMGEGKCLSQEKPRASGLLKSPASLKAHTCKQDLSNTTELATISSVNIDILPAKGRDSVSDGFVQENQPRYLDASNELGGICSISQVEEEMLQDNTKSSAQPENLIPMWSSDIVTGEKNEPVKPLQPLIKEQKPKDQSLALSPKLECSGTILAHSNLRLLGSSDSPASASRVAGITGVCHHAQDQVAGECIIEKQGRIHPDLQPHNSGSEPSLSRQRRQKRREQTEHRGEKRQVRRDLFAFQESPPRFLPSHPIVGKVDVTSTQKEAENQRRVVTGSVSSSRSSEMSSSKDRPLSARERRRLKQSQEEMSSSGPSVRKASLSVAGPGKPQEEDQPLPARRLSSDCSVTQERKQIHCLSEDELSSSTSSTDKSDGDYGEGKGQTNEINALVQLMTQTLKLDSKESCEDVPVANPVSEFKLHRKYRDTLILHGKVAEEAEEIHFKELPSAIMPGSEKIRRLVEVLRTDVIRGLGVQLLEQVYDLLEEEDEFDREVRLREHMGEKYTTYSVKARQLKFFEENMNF
T1 sequence (P27037 20-513): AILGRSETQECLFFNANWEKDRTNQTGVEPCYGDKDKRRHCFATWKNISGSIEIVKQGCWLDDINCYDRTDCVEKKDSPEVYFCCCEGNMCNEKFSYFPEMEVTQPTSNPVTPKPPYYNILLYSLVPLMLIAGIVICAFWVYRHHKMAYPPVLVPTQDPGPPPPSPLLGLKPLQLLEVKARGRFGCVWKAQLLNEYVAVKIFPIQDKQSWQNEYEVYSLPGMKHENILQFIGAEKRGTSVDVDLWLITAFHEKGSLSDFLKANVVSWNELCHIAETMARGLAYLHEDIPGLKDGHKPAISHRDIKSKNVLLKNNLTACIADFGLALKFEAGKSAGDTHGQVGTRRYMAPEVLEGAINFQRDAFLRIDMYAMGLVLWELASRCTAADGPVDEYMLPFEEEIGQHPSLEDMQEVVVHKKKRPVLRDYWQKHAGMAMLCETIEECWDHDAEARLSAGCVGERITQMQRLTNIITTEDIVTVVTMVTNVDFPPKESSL
T16 sequence (Q9UKI8 whole entry): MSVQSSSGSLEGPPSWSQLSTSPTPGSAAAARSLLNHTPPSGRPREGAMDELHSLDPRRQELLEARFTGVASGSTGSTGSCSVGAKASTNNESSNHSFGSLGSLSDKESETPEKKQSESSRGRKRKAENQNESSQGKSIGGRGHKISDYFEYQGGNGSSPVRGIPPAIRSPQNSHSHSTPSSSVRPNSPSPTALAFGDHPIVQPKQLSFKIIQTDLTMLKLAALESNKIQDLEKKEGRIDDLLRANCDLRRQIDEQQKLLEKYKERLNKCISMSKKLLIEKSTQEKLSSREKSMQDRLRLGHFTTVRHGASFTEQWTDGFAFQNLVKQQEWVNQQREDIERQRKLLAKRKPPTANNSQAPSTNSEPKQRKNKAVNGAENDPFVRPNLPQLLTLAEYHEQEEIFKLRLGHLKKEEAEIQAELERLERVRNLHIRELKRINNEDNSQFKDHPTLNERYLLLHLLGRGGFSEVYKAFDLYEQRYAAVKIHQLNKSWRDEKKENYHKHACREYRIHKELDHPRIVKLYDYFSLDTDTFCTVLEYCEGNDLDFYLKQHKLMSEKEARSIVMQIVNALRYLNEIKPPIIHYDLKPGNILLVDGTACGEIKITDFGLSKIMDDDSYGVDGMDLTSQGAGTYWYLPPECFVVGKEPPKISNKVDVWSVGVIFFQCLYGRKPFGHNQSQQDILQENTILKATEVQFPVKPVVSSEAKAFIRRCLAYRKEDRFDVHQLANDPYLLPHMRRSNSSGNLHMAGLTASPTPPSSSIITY
T5 sequence (Q9HCP0 whole entry): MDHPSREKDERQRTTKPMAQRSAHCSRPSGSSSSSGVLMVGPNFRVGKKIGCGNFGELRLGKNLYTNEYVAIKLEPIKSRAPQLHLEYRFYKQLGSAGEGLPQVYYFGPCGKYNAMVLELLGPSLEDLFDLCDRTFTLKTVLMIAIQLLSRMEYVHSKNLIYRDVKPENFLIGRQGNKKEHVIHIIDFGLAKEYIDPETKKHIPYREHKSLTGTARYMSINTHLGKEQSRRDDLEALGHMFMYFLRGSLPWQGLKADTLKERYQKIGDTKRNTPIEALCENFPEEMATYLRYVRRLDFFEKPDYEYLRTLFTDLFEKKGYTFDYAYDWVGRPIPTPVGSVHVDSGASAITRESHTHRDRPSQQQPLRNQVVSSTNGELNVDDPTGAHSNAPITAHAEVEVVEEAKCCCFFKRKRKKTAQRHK
T4 sequence (P50750 whole entry): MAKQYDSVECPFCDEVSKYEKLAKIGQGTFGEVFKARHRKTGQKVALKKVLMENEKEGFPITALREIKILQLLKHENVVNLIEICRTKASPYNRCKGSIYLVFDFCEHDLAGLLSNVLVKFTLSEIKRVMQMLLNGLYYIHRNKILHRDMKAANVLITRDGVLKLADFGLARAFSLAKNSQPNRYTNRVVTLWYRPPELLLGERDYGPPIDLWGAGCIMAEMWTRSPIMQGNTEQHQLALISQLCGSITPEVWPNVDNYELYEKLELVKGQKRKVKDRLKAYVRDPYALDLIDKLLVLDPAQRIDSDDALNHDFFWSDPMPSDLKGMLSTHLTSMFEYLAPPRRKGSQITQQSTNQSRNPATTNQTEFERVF

Molecule `Nc1ccc(N=Nc2ccccc2)c(N)n1` [phenazopyridine, 2,6-diamino-3-(phenylazo)pyridine] has a kinase inhibition (ACVR2A) of 94, a kinase inhibition (CAMK1) of 100 and a kinase inhibition (CDK11) of 90. The kinase inhibition (CDK9) was 88, the kinase inhibition (CSNK1G1) was 85 and the kinase inhibition (DCAMKL3) was 92. It also gave a kinase inhibition (EPHA7) of 91, a kinase inhibition (FAK) of 96 and a kinase inhibition (FGFR1) of 100. For the same molecule, the kinase inhibition (FGFR4) was 91, the kinase inhibition (GRK4) was 95 and the kinase inhibition (NEK1) was 100. The kinase inhibition (NEK2) was 81, the kinase inhibition (NEK4) was 100 and the remaining activity (PIK3C2G; 10 µM) was 24. It also gave a remaining binding at 10 µM (PIK3C2G; read-out: % Of control) of 24%, a kinase inhibition (TLK1) of 70 and a kinase inhibition (TNNI3K) of 100. The kinase inhibition (ZAK) was 100 and the “number of LC3B-positive autophagosomes” value (PSC) was “increased”.
